Residues, ends and D or L forms follow the SMILES beside them. No end group written: not given here.
How the values were obtained:
[1] = target: T1, LPAR3 (Homo sapiens, UniProt Q9UBY5); assay: Full Functional GPCR Panel: LPAR3; type: cell-based; conditions: EPSI 100 μM; 30 nM Lysophosphatidic acid; CHO cells expressing LPAR3
T1 construct: host or cells: CHO
T1 sequence (Q9UBY5 1-353): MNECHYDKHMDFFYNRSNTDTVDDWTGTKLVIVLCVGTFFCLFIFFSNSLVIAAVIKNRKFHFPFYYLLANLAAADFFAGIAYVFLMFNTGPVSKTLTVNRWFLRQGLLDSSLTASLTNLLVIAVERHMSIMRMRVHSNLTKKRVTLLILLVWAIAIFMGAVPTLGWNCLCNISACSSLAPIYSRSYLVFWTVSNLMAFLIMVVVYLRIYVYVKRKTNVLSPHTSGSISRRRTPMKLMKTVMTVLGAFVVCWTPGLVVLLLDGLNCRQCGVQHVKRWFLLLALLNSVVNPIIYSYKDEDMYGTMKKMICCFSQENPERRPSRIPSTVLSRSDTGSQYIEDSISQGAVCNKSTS
Protocol: (§1) EPSI peptide was tested in the dose of 100 μM in 326 functional assays (163 GPCRs both in agonist and antagonist modes) combined in Full Functional GPCR Panel (item P343) provided by Eurofins Cerep SA.
(§2) Each cell-based assay was performed by application of the peptide to cell lines expressing individual receptors with subsequent measuring Ca2+, IP1, or cAMP depending on the receptor type. In the case of antagonist mode assays, the peptide was applied together with the control agonist.
(§3) Cellular agonist effect was calculated as a % of control response to a known reference agonist for each target and cellular antagonist effect was calculated as a % inhibition of control reference agonist response for each target.
EPSI peptide induced activating effect provided by 30 nM of control agonist Lysophosphatidic acid by 29.2±3.0% in CHO cells expressing LPAR3.

[2] = target: T2, NPSR1 (the receptor of neuropeptide S) (Homo sapiens, UniProt Q6W5P4); assay: Full Functional GPCR Panel (Eurofins Cerep): NPSR1, intracellular Ca2+; type: cell-based; conditions: EPSI 100 μM; 10 nM NPS; HEK-293 cells expressing NPSR1
T2 construct: host or cells: HEK-293
T2 sequence (Q6W5P4 1-371): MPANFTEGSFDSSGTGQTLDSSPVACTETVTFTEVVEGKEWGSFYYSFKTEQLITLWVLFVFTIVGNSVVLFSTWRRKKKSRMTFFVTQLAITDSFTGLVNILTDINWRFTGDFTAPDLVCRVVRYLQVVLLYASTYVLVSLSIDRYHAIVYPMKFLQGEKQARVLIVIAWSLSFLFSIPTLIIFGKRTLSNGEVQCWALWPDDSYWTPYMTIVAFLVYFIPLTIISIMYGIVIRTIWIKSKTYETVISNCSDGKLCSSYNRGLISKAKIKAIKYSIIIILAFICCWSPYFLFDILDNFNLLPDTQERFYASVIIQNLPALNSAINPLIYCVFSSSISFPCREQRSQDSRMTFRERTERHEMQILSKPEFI
Protocol: as §1, §2, §3
EPSI peptide induced activating effect provided by 10 nM of control agonist NPS (neuropeptide S) by 56.4±8.5% in HEK-293 cells expressing NPSR1 (the receptor of neuropeptide S). Activation of NPSR1 was measured by the changes in intracellular Ca2+ levels.

[3] = system: C57BL/6 mice on a high-fat diet; assay: Tolerability observations in HFD mice study; type: in vivo, mouse; conditions: EPSI 5 mg/kg i.n. and i.p.
Protocol: Groups of 10 animals were formed from the existing groups from Stage 2, with similar mean body weight (Table 6). The animals' bodyweight was monitored three times a week, water, and feed consumption—weekly. After the last treatment, the animals were euthanized for necropsy and their blood collected. The internal organs were examined for the presence of macro damage and weighed. The adipose tissue surrounding the epididymis was evaluated as a marker of obesity in animals. For histological examination, samples of adipose tissue and liver tissue were fixed in 10% formalin solution for further histological analysis.
During necropsy, the body's external state, internal surfaces, the cranial cavity, chest, abdominal and pelvic cavities with organs and tissues located in them, the neck with organs and tissues, the skeleton, and the musculoskeletal system were examined. The organs and tissues were fixed in 10% formalin. Liver and adipose tissue samples were weighed and stored in 10% formalin for subsequent histological analysis.

[4] = target: T3, FFAR2 (GPR43) receptor (Homo sapiens, UniProt O15552); assay: FFAR2 cell-based functional antagonist assay, intracellular Ca2+; conditions: EPSI 100 μM; 1 mM sodium acetate; HEK-293 cells expressing FFAR2
T3 construct: host or cells: HEK-293
T3 sequence (O15552 1-330): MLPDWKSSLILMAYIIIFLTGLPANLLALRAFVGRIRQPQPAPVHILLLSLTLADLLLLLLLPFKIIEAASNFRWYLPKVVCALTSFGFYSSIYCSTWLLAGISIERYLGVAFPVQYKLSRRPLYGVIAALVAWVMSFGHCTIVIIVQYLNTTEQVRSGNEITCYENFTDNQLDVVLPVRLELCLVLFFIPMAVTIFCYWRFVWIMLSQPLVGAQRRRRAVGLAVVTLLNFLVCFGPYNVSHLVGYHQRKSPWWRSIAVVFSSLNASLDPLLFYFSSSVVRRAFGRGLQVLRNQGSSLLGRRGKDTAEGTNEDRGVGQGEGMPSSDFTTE
Protocol: as §1, §2, §3
EPSI peptide acted as antagonist of FFAR2 (GPR43) receptor reducing by 28.0±1.5% the signal induced by 1 mM of sodium acetate in HEK-293 cells expressing FFAR2.
EPSI peptide was tested in the doses of 0.03, 0.16, 4, and 20 μM in FFAR2 cell-based functional antagonistic assay provided by Eurofins Cerep SA. The assay was performed in HEK-293 cell line expressing FFAR2 and stimulated with 1 mM sodium acetate (control reference agonist) for FFAR2 signaling induction. Fluorimetric measurement of intracellular Ca2+ levels was performed after the peptide application. Cellular antagonist effect was calculated as a % inhibition of control reference agonist response.

[5] = target: T4, GPR109A receptor (Homo sapiens, UniProt Q8TDS4); assay: Full Functional GPCR Panel: GPR109A antagonist mode; type: cell-based; conditions: EPSI 100 μM; 300 nM nicotinic acid; RBL cells expressing GPR109A
T4 construct: host or cells: RBL
Protocol: as §1, §2, §3

[6] = target: T5, M2 muscarinic receptor (Homo sapiens, UniProt P08172); assay: Full Functional GPCR Panel: M2 muscarinic receptor, cAMP; type: cell-based; conditions: EPSI 100 μM; vs 3 μM acetylcholine; CHO cells expressing M2
T5 construct: host or cells: CHO
T5 sequence (P08172 1-466): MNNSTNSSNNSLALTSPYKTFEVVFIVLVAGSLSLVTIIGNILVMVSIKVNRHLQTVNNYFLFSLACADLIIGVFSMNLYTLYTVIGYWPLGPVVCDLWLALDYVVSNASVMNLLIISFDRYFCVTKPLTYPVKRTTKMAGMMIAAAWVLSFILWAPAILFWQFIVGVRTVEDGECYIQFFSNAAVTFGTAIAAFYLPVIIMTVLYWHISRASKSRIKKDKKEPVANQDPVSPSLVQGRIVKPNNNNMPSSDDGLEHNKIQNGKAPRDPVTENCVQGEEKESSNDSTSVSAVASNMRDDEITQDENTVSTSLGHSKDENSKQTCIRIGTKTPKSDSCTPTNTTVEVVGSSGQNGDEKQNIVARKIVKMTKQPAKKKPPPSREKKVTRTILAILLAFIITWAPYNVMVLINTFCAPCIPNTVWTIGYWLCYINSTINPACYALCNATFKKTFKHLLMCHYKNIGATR
Protocol: as §1, §2, §3

[7] = system: HepG2 cells; assay: HepG2 cell death on incubation with antagonist; type: cell-based, human; conditions: co-incubation with EPSI 0.05 mg/mL in M67 reporter experiment
Protocol: • HepG2 human hepatocyte carcinoma cell line (HB-8065, ATCC, USA). • HepG2 cells were cultured in a complete DMEM medium containing 15% FBS.
Transfected HepG2 cells were co-incubated with EPSI peptide (0.05 mg/mL) and antagonists of the selected receptors.

[8] = system: primary mouse fibroblasts; assay: Cell confluence of fibroblasts (cytotoxic effect); type: cell-based; conditions: 2.5 mg/ml (highest dose), 24 hours
Protocol: The study was carried out in primary mouse fibroblasts. Isolation of fibroblasts was carried out with techniques described earlier (See Example 1). Fibroblasts were incubated with […] (SEQ ID NO: 1) peptide at different concentrations (0.005 mg/ml; 0.05 mg/ml; 0.5 mg/ml; 2.5 mg/ml) for 24 hours. Each treatment group was represented in two biological replicates.

[9] = system: TNF-α; assay: TNF-α mRNA expression in LPS-induced primary mouse fibroblasts; type: cell-based; conditions: peptide 100 μM + LPS 0.5 μg/mL, 24 hours
Protocol: (§4) The study was carried out in primary mouse fibroblasts. Isolation of fibroblasts was carried out with techniques described earlier (See Example 1). Fibroblasts were cultured for 3 days. The following stressors were applied separately: bacterial lipopolysaccharides (LPS), high glucose in the incubation medium, and serum-free incubation medium.
(§5) LPS is a major outer surface membrane component that induces an inflammatory response in cells.
(§6) Isolation of mRNA, synthesis of the first strand of cDNA, and RT-PCR were performed with techniques described earlier (See Example 1). Expression levels of IRS2, TNF-α, IL-6, and GSK3p (WNT-pathway) were analyzed.
(§7) The study was carried out in primary mouse fibroblasts. Isolation of fibroblasts was carried out with techniques described earlier (See Example 1). Incubation of fibroblasts with 100 μM individual peptides and 0.5 μg/mL LPS was carried out for 24 hours. Each treatment group was represented in two biological replicates.
(§8) Isolation of mRNA, synthesis of the first strand of cDNA, and RT-PCR were performed with techniques described earlier (See Example 1). Expression levels of RPL27, TNF-α, IL-6, and IRS2 genes were analyzed.

[10] = system: IRS2 gene expression; assay: IRS2 and metabolic gene mRNA expression (real-time PCR) in primary mouse fibroblasts; type: cell-based; conditions: 24 hours
Protocol: The study was carried out in primary mouse fibroblasts. Fibroblasts were isolated from skin tissues of twenty C57BL/6 mice in accordance with the standard protocol (Seluanov (2010). Establishing primary adult fibroblast cultures from rodents. JoVE. 44). Fibroblasts were cultured in a complete DMEM/F12 medium containing 15% FBS for two days, after which they were incubated with individual peptides for 24 hours. The dose of each peptide was 0.5 mg/ml. The experiment was carried out in 2 biological replicates.
The isolation of total RNA from cells was performed using the “ExtractRNA” reagent (Evrogen, Russia) analog of Trizol, according to the manufacturer's protocol. The quality of the isolated total RNA was assessed by measuring the concentration of RNA and the ratio of optical absorption at wavelengths of 260 nm and 280 nm. […]
Real-time PCR was performed using commercially available kit qPCR mix-HS-SYBR+Low Rox (Evrogen, Russia) and 7500 real-time PCR System (Applied Biosystems). […] We analyzed expression levels of TSC1, TSC2, pS6K1, pAKT, IRS2, SREBP-1, Stat3 genes. […]
Isolation of mRNA, synthesis of the first strand of cDNA, and RT-PCR were performed with techniques described earlier (See Example 1). Expression levels of IRS2, TNF-α, IL-6, and GSK3p (WNT-pathway) were analyzed. […]

[11] = system: IL-6; assay: IL-6 mRNA expression in LPS-induced primary mouse fibroblasts; type: cell-based; conditions: peptide 100 μM + LPS 0.5 μg/mL, 24 hours
Protocol: as §4, §5, §6, §7, §8

T4 sequence (Q8TDS4 whole entry): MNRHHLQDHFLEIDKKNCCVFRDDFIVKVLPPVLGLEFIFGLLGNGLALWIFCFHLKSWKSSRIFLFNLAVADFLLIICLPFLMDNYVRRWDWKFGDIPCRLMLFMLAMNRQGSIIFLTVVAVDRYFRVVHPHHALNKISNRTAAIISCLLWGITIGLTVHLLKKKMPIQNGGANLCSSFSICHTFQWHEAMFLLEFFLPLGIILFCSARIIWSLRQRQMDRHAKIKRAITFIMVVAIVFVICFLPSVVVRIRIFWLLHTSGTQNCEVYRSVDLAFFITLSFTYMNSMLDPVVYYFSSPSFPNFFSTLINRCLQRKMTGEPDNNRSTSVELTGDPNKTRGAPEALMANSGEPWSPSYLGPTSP

CC[C@H](C)[C@H](NC(=O)[C@H](CO)NC(=O)[C@@H]1CCCN1C(=O)[C@@H](N)CCC(=O)O)C(=O)O [EPSI] (H-EPSI-OH)
induction of activating effect of control agonist Lysophosphatidic acid [1]: 29.2±3.0%
induction of activating effect of control agonist NPS (intracellular Ca2+) [2]: 56.4±8.5%
local irritating effect (nasal mucosa; abdominal wall skin and subcutaneous tissue) [3]: no local irritating effect
toxic effects throughout the experiment ([3]; up to 28 days): no toxic effects
reduction of signal induced by sodium acetate (antagonist mode) [4]: 28.0±1.5%
reduction of signal evoked by nicotinic acid (antagonist mode) [5]: 37.1±2.1%
reduction of cAMP levels, efficiency compared to control agonist [6]: 26.8±6.8%

COc1cc(OC)cc(N(CCNC(C)C)c2ccc3ncc(-c4cnn(C)c4)nc3c2)c1 [Erdafitinib]
HepG2 cell death [7]: total cell death

DLSKEPSISRE
cytotoxic effect (confluence of the cells) [8]: absence of cytotoxic effect

SKEPSIS (Synthetic polymer)
LPS-evoked levels of TNF-α expression [9]: reducing LPS-evoked levels
IRS2 expression during LPS-induced inflammatory response ([10]; peptide 100 μM + LPS 0.5 μg/mL): induced
IRS2 gene expression levels ([10]; pharmacophore screen, peptides 100 μM): induce IRS2 gene expression levels
LPS-evoked levels of IL-6 expression [11]: reducing LPS-evoked levels
